Reference: US9023998B2, “Near infrared fluorogen and fluorescent activating proteins for in vivo imaging and live-cell biosensing” (Carnegie Mellon University, priority 2013, dated 2015)

How the values were obtained:
mL9.3 (SEQ. ID. NO. 20) = assay: Fluorogen activation by purified monomeric FAP mL9.3 (spectra); format: biochemical; settings: purified protein, about 300 nM fluorogen, PBS pH 7.4
From the text: (§1) While the peptide linker that joins the VL units in dL9.2 (SEQ. ID. NO. 2) and dL9.5 (SEQ. ID. NO. 3) enhance fluorogen binding affinity and binding rate by reducing the entropic cost of assembly around the fluorogen, the linker is not strictly necessary for fluorogenic activation. […] In panels C and D, corresponding spectra from mL9.5:SKC602 (SEQ. ID. NO. 21:SKC602) and mL9.5:SKC728 (SEQ. ID. NO. 21:SKC728) fluoromodules are shown. Spectra were obtained using a Quantamaster™ fluorometer (PTI) equipped with dual monochromators on both excitation and emission light paths.
(§2) To facilitate ligase-dependent cloning methods, the above procedure was repeated for dL9.5 (SEQ. ID. NO. 6), using otherwise identical primers that appended BspEI (TCCGGA) (SEQ. ID. NO. 25) and BamHI (GGATCC) (SEQ. ID. NO. 26) sites directly at the 5′ and 3′ termini, respectively, of the dL9.5 gene (SEQ. ID. NO. 6). The resulting plasmid, designated pPNL9z-dL9.5, could be digested with BspEI (SEQ. ID. NO. 25) and BamHI (SEQ. ID. NO. 26) to produce a yeast expression vector backbone capable of receiving inserts with like-digested termini. […]

dL9.2 (SEQ. ID. NO. 2) = assay: Binding/activation of fluorogen by FAP dL9.2
From the text: A precursor FAP designated dL9 (SEQ. ID. NO. 1) was designed using the coding sequence of the light-chain from HL9-MG, a scFv originally isolated for binding and fluorescence activation of malachite green-based fluorogenic dyes (Szent-Gyorgyi, et al. 2008, incorporated herein by reference). This FAP was assembled as a tandem dimer of light chains by attaching a glycine-serine linker and a codon-optimized copy of the light chain gene to the original light chain via PCR. […] Mutagenesis and library generation by electroporation was performed in a previously described manner (Chao, et al., Isolating and engineering human antibodies using yeast surface display, Nature Protocols, vol. 1, No. 2, pp. 755-768 (2006)), but screening employed the protein secretion vector pPNL9, rather than the surface display vector pPNL6: Individual S. cerevisiae expressing FAP mutants were incubated with cell-permeant fluorogen MG-ester and the brightest activators were cloned via flow cytometry. Clones were induced for FAP production in tryptone-based protein secretion media (Szent-Gyorgyi, et al. 2008) and media was screened for activation of MG-ester after five days of induction at 20° C. This screen yielded dL9.2 (SEQ. ID. NO. 2): a bright, stable FAP amenable to high levels of expression. […]

mL9.5 (SEQ. ID. NO. 21) = assay: Fluorogen activation by purified monomeric FAP mL9.5 (spectra); format: biochemical; settings: purified protein, about 300 nM fluorogen, PBS pH 7.4
From the text: as §1, §2

dL9.5 (SEQ. ID. NO. 3) = assay: Binding of fluorogen by FAP dL9.5
From the text: The V70A mutation was propagated to both light chains to produce dL9.3 (SEQ. ID. NO. 31), which was immediately subjected to mutagenesis and screening in the surface-display format described previously (Chao, et al., Nature Protocols (2006)) in the presence of SKC602. The brightest clone collected from this screen was designated dL9.5 (SEQ. ID. NO. 3), and sequencing described exactly two mutations—tyrosine 96 to histidine—on both light chains.

## CN(C)c1ccc(/C=C/C(=C2C=CC(=[N+](C)C)C=C2)c2ccc(N(C)C)cc2)cc1 [SKC602, (E)-N-(4-(1,3-bis(4-(dimethylamino)phenyl)allylidene)cyclohexa-2,5-dien-1-ylidene)-N-methylmethanaminium]
mL9.3 (SEQ. ID. NO. 20)
  Induction of NIR fluorescence by mL9.3: induces fluorescence
dL9.2 (SEQ. ID. NO. 2)
  Binding and fluorescence activation by dL9.2: bind and activate fluorescence
mL9.5 (SEQ. ID. NO. 21)
  Induction of NIR fluorescence by mL9.5: induce NIR fluorescence

## CN(C)c1ccc(C(/C=C/c2ccc(N(C)CCCCC(=O)NC(CCS(=O)(=O)O)C(=O)O)cc2)=C2C=CC(=[N+](C)C)C=C2)cc1 (stereo not shown) [SKC728]
dL9.5 (SEQ. ID. NO. 3)
  Binding by dL9.5: bind
mL9.3 (SEQ. ID. NO. 20)
  Induction of NIR fluorescence by mL9.3: induces fluorescence
dL9.2 (SEQ. ID. NO. 2)
  Binding and fluorescence activation by dL9.2: bind
mL9.5 (SEQ. ID. NO. 21)
  Induction of NIR fluorescence by mL9.5: induce NIR fluorescence
